The results in this text go back to patent US7056511B2, “Inhibition of protein binding to mast cells” (Fornix Biosciences N.V., priority 1998, dated 2006).

The subject of one experiment is RBL-2H3 cells. The experiment is described as follows: Binding of FITC-labeled Ig LC to RBL-2H3 mast cell model (FACScan flow cytometer). It is filed as cell-based, rat. Here is the method: Basophilic leukemia cells RBL-2H3 (a gift of C. Fewtrell, Ithaca, N.Y., U.S.A.) of the rat, an established model for mast cells, were incubated with 200 ng/10^5 cells Ig LC labeled with fluorescein isothiocyanate. They were incubated for 30 minutes at 4° C. in the presence or absence of 250 μg/ml of the peptide LCBP prepared in preparation 1 (peptide binding to the light chain). Subsequently, they were washed using a phosphate-buffered saline supplemented with 1% v/v fetal calf serum and 0.01% w/v sodium azide. Binding of FITC-labeled Ig LC to RBL-2H3 cells was analyzed using a FACScan flow cytometer.
Curve 4 represents the autofluorescence of unlabeled RBL-2H3 cells.

In a further experiment the test system is mice. The experiment is described as follows: Bronchoconstriction (Penh, plethysmography) in mice passively sensitized with TNP-specific Ig LC and challenged intranasally with PSA. It is filed as in vivo. Here is the method: Lightly anaesthetized with halothane, mice were passively sensitized by injection with trinitrophenyl (TNP)-specific Ig LC (2 μg in 50 μl of sterile saline) in the retroorbital plexus. Control mice received only 50 μl of sterile saline. Thirty minutes after injection, while being lightly anaesthetized with halothane, all mice received intranasally 50 μl PSA-solution (picrylsulphonic acid dissolved in phosphate-buffered saline).
A part of each of these two groups of mice simultaneously received 200 μg LCBP (the peptide prepared in Example 1) intranasally.
Bronchoconstriction was measured as described by Kraneveld A. D. et al. (ref. 3) and Zuany-Amorim et al. (ref. 6). In short, five minutes before intranasal application of PSA, mice were placed in a plethysmographic chamber (Buxco Electronics Inc., Shanon, Conn.) in order to analyze respiration and to obtain basal line readings. After the intranasal administration, the animals were directly returned to the chamber. The respiratory resistance was measured for a period of 45 minutes. The respiratory resistance is expressed as a dimensionless value calculated by using the formula for the Penh (ref. 4).

On to “Ac-AHWSGHCCL-NH2 (cysteine pairing not given here) [LCBP]”, for which the “Inhibition of Ig LC binding to mast cells” value is on record as “can be inhibited” in the experiment with RBL-2H3 cells (LCBP 0.25 mg/ml, FIG. 1 curve 2) and “can be inhibited” in the experiment on RBL-2H3 cells (LCBP 0.50 mg/ml, FIG. 1 curve 3). The “Penh (maximum, respiratory resistance)” value is listed as 0.44 ± 0.05 in the experiment on mice (LCBP/PBS/PSA group (200 μg LCBP intranasally, saline instead of Ig LC), time 0 min, basal line reading before the challenge); 0.60 ± 0.12 in the experiment on mice (LCBP/PBS/PSA group (200 μg LCBP intranasally, saline instead of Ig LC), time 2.5 min); 0.65 ± 0.23 with mice (LCBP/PBS/PSA group (200 μg LCBP intranasally, saline instead of Ig LC), time 5 min); 0.74 ± 0.12 in the experiment with mice (LCBP/PBS/PSA group (200 μg LCBP intranasally, saline instead of Ig LC), time 7.5 min); 0.53 ± 0.03 in the experiment with mice (LCBP/PBS/PSA group (200 μg LCBP intranasally, saline instead of Ig LC), time 10 min); 0.49 ± 0.06 in the experiment with mice (LCBP/PBS/PSA group (200 μg LCBP intranasally, saline instead of Ig LC), time 15 min). Besides, the “Penh (maximum, respiratory resistance)” value in the experiment on mice (LCBP/PBS/PSA group (200 μg LCBP intranasally, saline instead of Ig LC), time 20 min) was 0.49 ± 0.03; with mice (LcBP/Ig LC/PSA group (200 μg LCBP intranasally, Ig LC-sensitized mice), time 0 min, basal line reading before the challenge), 0.43 ± 0.05; in the experiment on mice (LcBP/Ig LC/PSA group (200 μg LCBP intranasally, Ig LC-sensitized mice), time 2.5 min), 0.87 ± 0.20; in the experiment on mice (LcBP/Ig LC/PSA group (200 μg LCBP intranasally, Ig LC-sensitized mice), time 5 min), 1.12 ± 0.20; with mice (LcBP/Ig LC/PSA group (200 μg LCBP intranasally, Ig LC-sensitized mice), time 7.5 min), 0.87 ± 0.10; in the experiment with mice (LcBP/Ig LC/PSA group (200 μg LCBP intranasally, Ig LC-sensitized mice), time 10 min), 0.87 ± 0.20. In addition, the “Penh (maximum, respiratory resistance)” value came out at 0.85 ± 0.01 in the experiment with mice (LcBP/Ig LC/PSA group (200 μg LCBP intranasally, Ig LC-sensitized mice), time 15 min) and 0.52 ± 0.05 with mice (LcBP/Ig LC/PSA group (200 μg LCBP intranasally, Ig LC-sensitized mice), time 20 min). The “Inhibition of bronchoconstriction (elevation of Penh) induced by antigen (PSA)” value in the experiment with mice (intranasal LCBP during passive sensitization (i.v.) with Ig LC) is listed as “completely inhibit”.
